# Key:
# baseline pathogen = test: Phase 1b study, per-pathogen microbiological response at PTE (urine culture); assay type: in vivo, human
# Experimental: At screening and at all study visits (i.e., screening, daily while on treatment, and at EOT and PTE visits) a microbiologic evaluation of the infection under study was performed. A clean-catch midstream urine sample was collected and immediately sent to the local microbiology laboratory for microscopic examination and culture. Quantitative urine culture by appropriate methods was performed using a calibrated loop that would identify bacteria at a lower limit of 1×10^3 CFU/mL. In general, bacteria identified at 1×10^5 colony forming units (CFU)/mL or greater were considered a bacterial pathogen (probability of true pathogen was greater than probability of contamination). In addition, if the same bacteria was isolated in the blood and in the urine at any CFU count it was considered a pathogen. Culture results were to include identification of all pathogens to the level of genus and species. In vitro antimicrobial susceptibility testing of the isolates to antimicrobial drugs that may be used to treat UTIs was performed locally using a standard method chosen by the laboratory. The microbiological outcome was determined programmatically based on the local and Central Laboratory microbiological analyses. For an isolate to be considered a pathogen at screening, it must presented in the urine sample at ≥10^5 CFU/mL or the pathogen should be isolated from both the blood and urine at any CFU count. Microbiological outcome was defined as: • Eradication: […] The pathogens isolated at baseline were presented by genus and species by treatment group. The number and percentage of subjects with a by-subject and by-pathogen eradication, persistence and indeterminate microbiologic response were presented. A listing of all baseline and post-baseline isolates was provided.
# Ind+ Proteus spp = test: In vitro MIC, 2010 surveillance isolates; assay type: cell-based; conditions: N=258
# [1] = Phase 1b study, investigator's assessment of clinical response (EOT, PTE); assay type: in vivo, human
# Experimental: b) Investigator's Assessment of Clinical Response Investigator's Assessment of Clinical Response at EOT
# The EOT visit was conducted on Day 6. This evaluation was also conducted for any prematurely withdrawn subject. The following assessments were performed at the EOT visit: subject assessment of UTI signs and symptoms severity, urine culture and leukocyte esterase dipstick test or microscopic examination, physical examination, vital signs, 12-lead ECG, hematology and serum chemistry, serum pregnancy test (all subjects) and investigator's assessment of clinical response. Subjects, who discontinued study treatment before completing the study, and those who prematurely withdrew from the study for any reason, were scheduled for a visit as soon as possible, at which time all of the assessments listed for the EOT visit were performed.
# It was determined whether the subject met the criteria of 1 of the following clinical outcomes: • Clinical Success: Resolution of signs and symptoms at the EOT visit and no use of additional antimicrobial therapy. • Clinical Failure: No apparent response to therapy, persistence of signs and symptoms of infection at the EOT visit, or use of additional antimicrobial therapy for the current infection. • Indeterminate: EOT visit not completed. Investigator's Assessment of Clinical Response at PTE
# The PTE visit was conducted 5 to 9 days after the subject's last day of therapy. This evaluation was also conducted for any prematurely withdrawn subject. The following assessments were performed at the PTE visit: urine culture and leukocyte esterase dipstick test or microscopic examination, physical examination, vital signs, hematology, serum chemistry, serum pregnancy test (all subjects), and investigator's assessment of clinical response.
# It was determined whether the subject met the criteria of 1 of the following clinical outcomes: • Clinical Success: Resolution of signs and symptoms at the PTE visit and no use of additional antimicrobial therapy. • Clinical Failure: No apparent response to therapy, persistence of signs and symptoms of infection, or reappearance of signs and symptoms at or before the PTE visit, or use of additional antimicrobial therapy for the current infection. • Indeterminate: PTE visit not completed.
# Investigator's assessment of clinical response at the EOT and PTE visits with outcomes of Clinical Success, Clinical Failure or Indeterminate as defined above. Subjects who were a clinical failure at an earlier time point were considered a clinical failure at subsequent time points. The number and percentage of subjects with an Investigator's assessment of success, failure and indeterminate were presented for EOT and PTE visits by treatment group.
# [2] = Enterococcus faecalis, IV_PO300
# [3] = Overall Gram Negative Pathogens, IV_PO300
# [4] = Overall Gram Negative Pathogens, PO300
# [5] = Overall Gram Negative Pathogens, PO450
# [6] = Overall Gram Positive Pathogens, IV_PO300
# [7] = Overall Gram Positive Pathogens, PO300
# [8] = Overall Gram Positive Pathogens, PO450
# [9] = Staphylococcus saprophyticus, PO450
# [10] = Streptococcus agalactiae - (Group B), PO300
compound,measurement,setting,value
"CN(C)c1cc(CNCC(C)(C)C)c(O)c2c1C[C@H]1C[C@H]3[C@H](N(C)C)C(O)=C(C(N)=O)C(=O)[C@@]3(O)C(O)=C1C2=O [Compound 1, 9-[(2,2-dimethyl-propylamino)-methyl]-minocycline]",Eradication,"baseline pathogen; Aerococcus urinae, PO450",1 (100.0) n (%)
same,Indeterminate,"baseline pathogen; Aerococcus urinae, PO450",0 (0.0) n (%)
same,Persistence,"baseline pathogen; Aerococcus urinae, PO450",0 (0.0) n (%)
same,Eradication,baseline pathogen; [2],1 (100.0) n (%)
same,Indeterminate,baseline pathogen; [2],0 (0.0) n (%)
same,Persistence,baseline pathogen; [2],0 (0.0) n (%)
same,Eradication,"baseline pathogen; Escherichia coli, IV_PO300",3 (100.0) n (%)
same,Indeterminate,"baseline pathogen; Escherichia coli, IV_PO300",0 (0.0) n (%)
same,Persistence,"baseline pathogen; Escherichia coli, IV_PO300",0 (0.0) n (%)
same,Eradication,"baseline pathogen; Escherichia coli, PO300",2 (66.7) n (%)
same,Indeterminate,"baseline pathogen; Escherichia coli, PO300",0 (0.0) n (%)
same,Persistence,"baseline pathogen; Escherichia coli, PO300",1 (33.3) n (%)
same,Eradication,"baseline pathogen; Escherichia coli, PO450",2 (50.0) n (%)
same,Indeterminate,"baseline pathogen; Escherichia coli, PO450",0 (0.0) n (%)
same,Persistence,"baseline pathogen; Escherichia coli, PO450",2 (50.0) n (%)
same,Eradication,"baseline pathogen; Klebsiella pneumoniae, PO300",1 (100.0) n (%)
same,Indeterminate,"baseline pathogen; Klebsiella pneumoniae, PO300",0 (0.0) n (%)
same,Persistence,"baseline pathogen; Klebsiella pneumoniae, PO300",0 (0.0) n (%)
same,Eradication,"baseline pathogen; Klebsiella pneumoniae, PO450",1 (50.0) n (%)
same,Indeterminate,"baseline pathogen; Klebsiella pneumoniae, PO450",0 (0.0) n (%)
same,Persistence,"baseline pathogen; Klebsiella pneumoniae, PO450",1 (50.0) n (%)
same,Eradication,baseline pathogen; [3],6 (100.0) n (%)
same,Indeterminate,baseline pathogen; [3],0 (0.0) n (%)
same,Persistence,baseline pathogen; [3],0 (0.0) n (%)
same,Eradication,baseline pathogen; [4],4 (100.0) n (%)
same,Indeterminate,baseline pathogen; [4],0 (0.0) n (%)
same,Persistence,baseline pathogen; [4],1 (25.0) n (%)
same,Eradication,baseline pathogen; [5],3 (50.0) n (%)
same,Indeterminate,baseline pathogen; [5],0 (0.0) n (%)
same,Persistence,baseline pathogen; [5],3 (50.0) n (%)
same,Eradication,baseline pathogen; [6],1 (100.0) n (%)
same,Indeterminate,baseline pathogen; [6],0 (0.0) n (%)
same,Persistence,baseline pathogen; [6],0 (0.0) n (%)
same,Eradication,baseline pathogen; [7],1 (100.0) n (%)
same,Indeterminate,baseline pathogen; [7],0 (0.0) n (%)
same,Persistence,baseline pathogen; [7],0 (0.0) n (%)
same,Eradication,baseline pathogen; [8],2 (100.0) n (%)
same,Indeterminate,baseline pathogen; [8],0 (0.0) n (%)
same,Persistence,baseline pathogen; [8],0 (0.0) n (%)
same,Eradication,"baseline pathogen; Proteus mirabilis, IV_PO300",3 (100.0) n (%)
same,Indeterminate,"baseline pathogen; Proteus mirabilis, IV_PO300",0 (0.0) n (%)
same,Persistence,"baseline pathogen; Proteus mirabilis, IV_PO300",0 (0.0) n (%)
same,Eradication,"baseline pathogen; Proteus mirabilis, PO300",1 (100.0) n (%)
same,Indeterminate,"baseline pathogen; Proteus mirabilis, PO300",0 (0.0) n (%)
same,Persistence,"baseline pathogen; Proteus mirabilis, PO300",0 (0.0) n (%)
same,Eradication,baseline pathogen; [9],1 (100.0) n (%)
same,Indeterminate,baseline pathogen; [9],0 (0.0) n (%)
same,Persistence,baseline pathogen; [9],0 (0.0) n (%)
same,Eradication,baseline pathogen; [10],1 (100.0) n (%)
same,Indeterminate,baseline pathogen; [10],0 (0.0) n (%)
same,Persistence,baseline pathogen; [10],0 (0.0) n (%)
same,Cumulative % Inhibition at MIC,Ind+ Proteus spp; MIC 1 μg/ml,0.8%
same,Cumulative % Inhibition at MIC,Ind+ Proteus spp; MIC 2 μg/ml,3.1%
same,Cumulative % Inhibition at MIC,Ind+ Proteus spp; MIC 4 μg/ml,26.0%
same,Cumulative % Inhibition at MIC,Ind+ Proteus spp; MIC 8 μg/ml,58.1%
same,Cumulative % Inhibition at MIC,Ind+ Proteus spp; MIC 16 μg/ml,73.3%
same,Cumulative % Inhibition at MIC,Ind+ Proteus spp; MIC ≤0.5 μg/ml,0%
same,Cumulative % Inhibition at MIC,Ind+ Proteus spp; MIC ≥32 μg/ml,100%
same,Reason for Clinical Failure: Persistence of signs and symptoms of infection at or before current visit,"[1]; EOT, IV_PO300",0 (0.0) n (%)
same,Clinical Failure,"[1]; EOT, IV_PO300 (N = 11)",0 (0.0) n (%)
same,Clinical Success,"[1]; EOT, IV_PO300 (N = 11)",10 (90.9) n (%)
same,Indeterminate,"[1]; EOT, IV_PO300 (N = 11)",1 (9.1) n (%)
same,Reason for Clinical Failure: Persistence of signs and symptoms of infection at or before current visit,"[1]; EOT, PO300",0 (0.0) n (%)
same,Clinical Failure,"[1]; EOT, PO300 (N = 10)",0 (0.0) n (%)
same,Clinical Success,"[1]; EOT, PO300 (N = 10)",10 (100.0) n (%)
same,Indeterminate,"[1]; EOT, PO300 (N = 10)",0 (0.0) n (%)
same,Reason for Clinical Failure: Persistence of signs and symptoms of infection at or before current visit,"[1]; EOT, PO450",1 (100.0) n (%)
same,Clinical Failure,"[1]; EOT, PO450 (N = 10)",1 (10.0) n (%)
same,Clinical Success,"[1]; EOT, PO450 (N = 10)",9 (90.0) n (%)
same,Indeterminate,"[1]; EOT, PO450 (N = 10)",0 (0.0) n (%)
same,Reason for Clinical Failure: Persistence of signs and symptoms of infection at or before current visit,"[1]; PTE, IV_PO300",0 (0.0) n (%)
same,Reason for Clinical Failure: Use of additional systemic antimicrobial therapy for the current infection,"[1]; PTE, IV_PO300",0 (0.0) n (%)
same,Clinical Failure,"[1]; PTE, IV_PO300 (N = 11)",0 (0.0) n (%)
same,Clinical Success,"[1]; PTE, IV_PO300 (N = 11)",11 (100.0) n (%)
same,Indeterminate,"[1]; PTE, IV_PO300 (N = 11)",0 (0.0) n (%)
same,Reason for Clinical Failure: Persistence of signs and symptoms of infection at or before current visit,"[1]; PTE, PO300",2 (100.0) n (%)
same,Reason for Clinical Failure: Use of additional systemic antimicrobial therapy for the current infection,"[1]; PTE, PO300",0 (0.0) n (%)
same,Clinical Failure,"[1]; PTE, PO300 (N = 10)",2 (20.0) n (%)
same,Clinical Success,"[1]; PTE, PO300 (N = 10)",7 (70.0) n (%)
same,Indeterminate,"[1]; PTE, PO300 (N = 10)",0 (0.0) n (%)
same,Reason for Clinical Failure: Persistence of signs and symptoms of infection at or before current visit,"[1]; PTE, PO450",1 (50.0) n (%)
same,Reason for Clinical Failure: Use of additional systemic antimicrobial therapy for the current infection,"[1]; PTE, PO450",1 (50.0) n (%)
same,Clinical Failure,"[1]; PTE, PO450 (N = 10)",2 (20.0) n (%)
same,Clinical Success,"[1]; PTE, PO450 (N = 10)",8 (80.0) n (%)
same,Indeterminate,"[1]; PTE, PO450 (N = 10)",0 (0.0) n (%)
